We go through 2 molecules from paper PMC12254266, “Multicolored sequential resonance energy transfer for detection of simultaneous ligand binding at G protein-coupled receptors” (Nature Communications, 2025).

The target in the experiment is FFA1-Nluc (Homo sapiens, UniProt O14842). The experiment in a line: DISCo-BRET (endpoint, spectra scan, kinetics) with TUG-2591 and TUG-2597 at C terminal Nluc tagged FFA1. To be noted: for pIC50 DISCo-BRET SulfoCy5/NBD: one site model; for Specific BRET (690/540), % of control: Figure 4Aiii; for Specific BRET (690/540), % of control / Specific BRET (540/450), % of control: single replicate values (technical duplicate); for Specific BRET (540/450), % of control: Figure 4Biii; for pKi DISCo-BRET SulfoCy5/NBD: using Kd TUG-2591 57 nM. Also noted: expressed in transfected cells. In kind it is binding. The method, then: Nluc-FFA1 or FFA1-Nluc Flp-In T-REx 293 cells were plated at 50,000 cells per well in poly-D-lysine coated white 96-well plates. Cells were cultured for 24 h in the plate before medium was replaced with medium containing 100 ng/mL of doxycycline to induce receptor expression. After culturing for a further 24 h, culture medium was removed, cells washed with HBSS and incubated in HBSS for 30 min. For all DISCo-BRET formats Nano-Glo substrate was then added at a 1:800 final dilution and cells incubated for 10 min. Following substrate addition experimental set up different among the three formats: endpoint, spectra scan, and kinetics.
FFA1-Nluc, sequence (O14842 whole entry): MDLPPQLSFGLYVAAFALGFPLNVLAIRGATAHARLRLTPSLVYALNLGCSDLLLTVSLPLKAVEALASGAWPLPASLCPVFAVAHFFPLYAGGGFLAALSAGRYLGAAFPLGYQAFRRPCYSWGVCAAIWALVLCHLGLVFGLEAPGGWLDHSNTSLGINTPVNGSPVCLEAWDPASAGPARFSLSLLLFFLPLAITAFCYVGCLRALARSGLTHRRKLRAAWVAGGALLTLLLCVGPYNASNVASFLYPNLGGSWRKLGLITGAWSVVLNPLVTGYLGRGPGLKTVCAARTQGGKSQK
For endpoint experiments all fluorescent and unlabelled ligands were added to the cells and incubated for 5 min at 37 °C. Luminescent emission was then measured using a CLARIOstar microplate reader with monochromator set at 450–60 nm (Nluc), 540−60 nm (NBD) and 690–100 nm (SulfoCy5). BRET ratios were then calculated as either SulfoCy5 emission divided by NBD emission, SulfoCy5 emission divided by Nluc emission, or NBD emission divided by Nluc emission.
For spectra scan experiments all indicated fluorescent and unlabelled ligands were added to the cells and cells incubated for 5 min at 37 °C. Luminescence emissions were then measured from each well of the plate from 440 nm – 740 nm with a 5 nm resolution using a CLARIOstar microplate. Luminescent emission spectra were then normalised as a percentage of the maximal Nluc emission peak ( ~ 460 nm), then subtracted with the spectrum obtained in the presence of high concentrations of ligands competing for both binding sites to obtain specific BRET binding spectra.
In kinetic DISCo-BRET experiments plates were placed directly in a CLARIOstar plate reader set to 25 °C 10 min after Nano-Glo substrate addition. Luminescent measurements were then taken with three sequential measurements per well with the monochromator set to 450–60 nm (Nluc), 540 - 60 nm (NBD) and 690–100 nm (SulfoCy5) taken in 20 or 30 s intervals. After 5 min of background measurements, the plate reader was paused for the first indicated fluorescent ligand(s) addition, before immediately returning the plate to the reader to continue luminescence readings. After 5 min, the reader was again paused to add the second fluorescent ligand (association assays) or competing ligand(s) (dissociation assays), before immediately continuing the measurements for the indicated time. Non-specific control binding was obtained by adding the indicated competing ligand(s) 5 min prior to the addition of the first fluorescent ligand.

Where [1] appears, read: 100 nM TUG-2591 and […] TUG-2597, NC = No competition.
[2] abbreviates: percentage of binding obtained in the absence of competing ligand, 100 nM TUG-2591 and […] TUG-2597.

Where “and” joins values, the source holds several entries; their conditions need not be identical. Equal values may be shown once.

`CCCN1C(=O)c2ccccc2[C@@H](C(=O)O)[C@@H]1c1ccc(OCc2cccc(-c3ccc(OCCOCCNC(=O)OC(C)(C)C)cc3C)c2)cc1` (racemic) [TUG-2744]: the “pKi DISCo-BRET SulfoCy5/NBD” value came to 6.6±0.07. In addition, the “pIC50 DISCo-BRET SulfoCy5/NBD” value under setting [1] is given as 6.2±0.07. Also, for the setting “log[Ligand] -5”, the “Specific BRET (690/540), % of control” value was 39.83 % of control and 31.90 % of control and 49.72 % of control and 41.62 % of control and 42.27 % of control and 54.60 % of control and 24.29 % of control and 24.93 % of control; the “Specific BRET (540/450), % of control” value is 137.97 % of control and 140.19 % of control and 93.19 % of control and 74.76 % of control. Where the note is “log[Ligand] -5.5”, the “Specific BRET (690/540), % of control” value is 37.03 % of control and 28.64 % of control and 34.65 % of control and 33.07 % of control and 31.01 % of control and 33.80 % of control and 21.95 % of control and 22.19 % of control; the “Specific BRET (540/450), % of control” value is 128.99 % of control and 129.28 % of control and 107.91 % of control and 104.11 % of control and 75.59 % of control and 66.37 % of control. Where the note is “log[Ligand] -6”, the “Specific BRET (690/540), % of control” value was 54.48 % of control and 58.02 % of control and 68.62 % of control and 58.61 % of control and 60.18 % of control and 39.48 % of control and 47.55 % of control and 54.64 % of control; the “Specific BRET (540/450), % of control” value is 100.93 % of control and 117.25 % of control and 87.18 % of control and 77.69 % of control and 68.48 % of control and 67.29 % of control. For the same molecule, where the note is “log[Ligand] -6.5”, the “Specific BRET (690/540), % of control” value was 81.72 % of control and 80.69 % of control and 83.13 % of control and 96.40 % of control and 81.56 % of control and 79.15 % of control and 75.55 % of control and 78.81 % of control; the “Specific BRET (540/450), % of control” value is 102.36 % of control and 114.39 % of control and 83.39 % of control and 83.86 % of control and 94.27 % of control and 96.38 % of control. In addition, where the note is “log[Ligand] -7”, the “Specific BRET (690/540), % of control” value is 91.79 % of control and 92.91 % of control and 97.64 % of control and 109.79 % of control and 98.51 % of control and 104.19 % of control and 93.40 % of control and 97.61 % of control; the “Specific BRET (540/450), % of control” value was 116.11 % of control and 107.80 % of control and 95.73 % of control and 91.61 % of control and 84.18 % of control and 85.41 % of control. For the same molecule, under “log[Ligand] -8”, the “Specific BRET (690/540), % of control” value was 103.08 % of control and 96.92 % of control and 107.31 % of control and 115.19 % of control and 106.98 % of control and 101.78 % of control and 103.46 % of control and 103.17 % of control; the “Specific BRET (540/450), % of control” value was 110.67 % of control and 105.51 % of control and 101.90 % of control and 100.00 % of control and 64.33 % of control and 77.86 % of control. Further, under “log[Ligand] -9”, the “Specific BRET (690/540), % of control” value is 95.62 % of control and 111.25 % of control and 100.79 % of control and 103.71 % of control and 132.11 % of control; the “Specific BRET (540/450), % of control” value is 110.95 % of control and 125.84 % of control and 113.61 % of control and 148.10 % of control and 60.11 % of control and 65.92 % of control. For the same molecule, the “'bottom' of the IC50 curve, DISCo-BRET SulfoCy5/NBD” value under setting [2] stood at 26%.

For `CCCN1C(=O)c2ccccc2[C@@H](C(=O)O)[C@@H]1c1ccc(OCc2cccc(C(F)(F)F)c2)cc1` [TUG-2743], the “pKi DISCo-BRET SulfoCy5/NBD” value stood at 6.5±0.1. Under setting [1], the “pIC50 DISCo-BRET NBD/Nluc” value was 6.1±0.2 and the “pIC50 DISCo-BRET SulfoCy5/NBD” value was determined as 6.0±0.1. Under “log[Ligand] -5”, the “Specific BRET (690/540), % of control” value is 6.26 % of control and 15.30 % of control and 0.00 % of control and 23.39 % of control and 7.57 % of control and 16.15 % of control and 4.80 % of control and 5.42 % of control; the “Specific BRET (540/450), % of control” value is 61.42 % of control and 37.32 % of control and -37.32 % of control and -3.93 % of control and 3.93 % of control and 54.66 % of control and 43.23 % of control. In addition, for the setting “log[Ligand] -5.5”, the “Specific BRET (690/540), % of control” value is 25.12 % of control and 40.23 % of control and 23.90 % of control and 52.64 % of control and 8.58 % of control and 35.72 % of control and 22.62 % of control and 24.58 % of control; the “Specific BRET (540/450), % of control” value is 68.58 % of control and 86.33 % of control and -8.16 % of control and -102.04 % of control and 41.80 % of control and 13.93 % of control and 39.36 % of control and 39.62 % of control. Further, where the note is “log[Ligand] -6”, the “Specific BRET (690/540), % of control” value was 58.42 % of control and 58.33 % of control and 46.92 % of control and 53.66 % of control and 32.09 % of control and 48.03 % of control and 43.57 % of control and 46.72 % of control; the “Specific BRET (540/450), % of control” value was 100.93 % of control and 79.17 % of control and 5.25 % of control and 9.91 % of control and 41.19 % of control and 34.87 % of control and 62.06 % of control. Moreover, the “Specific BRET (690/540), % of control” value (log[Ligand] -6.5) is 76.32 % of control and 72.57 % of control and 71.58 % of control and 84.17 % of control and 56.21 % of control and 64.88 % of control and 65.73 % of control and 61.96 % of control. Also, under “log[Ligand] -7”, the “Specific BRET (690/540), % of control” value is 89.22 % of control and 91.72 % of control and 94.47 % of control and 101.84 % of control and 86.98 % of control and 84.36 % of control and 91.26 % of control and 83.54 % of control; the “Specific BRET (540/450), % of control” value was 106.08 % of control and 110.38 % of control and 76.97 % of control and 86.30 % of control and 79.83 % of control and 51.81 % of control and 67.53 % of control and 67.76 % of control. For the same molecule, where the note is “log[Ligand] -8”, the “Specific BRET (690/540), % of control” value is 93.65 % of control and 94.71 % of control and 131.47 % of control and 106.17 % of control and 87.89 % of control and 98.79 % of control and 100.59 % of control and 92.67 % of control; the “Specific BRET (540/450), % of control” value is 118.40 % of control and 124.70 % of control and 235.57 % of control and 32.65 % of control and 76.75 % of control and 53.35 % of control and 80.89 % of control and 68.94 % of control. Where the note is “log[Ligand] -9”, the “Specific BRET (690/540), % of control” value is 99.33 % of control and 100.67 % of control and 26.06 % of control and 102.35 % of control and 91.83 % of control and 93.74 % of control; the “Specific BRET (540/450), % of control” value is 129.56 % of control and 130.71 % of control and -41.98 % of control and 129.45 % of control and 107.24 % of control and 49.50 % of control and 87.02 % of control and 76.46 % of control. For the same molecule, the “'bottom' of the IC50 curve, DISCo-BRET NBD/Nluc” value (percentage of binding obtained in the absence of competing ligand) was 10%. The “'bottom' of the IC50 curve, DISCo-BRET SulfoCy5/NBD” value under setting [2] came to 3.2%.
